Experimental data: patent EP2389922A1, “Cyclohexyl carbamate compounds as anti-ageing actives” (Symrise AG, priority 2010, dated 2011)

Tests used:
[1] = test system: SIRT1; test: SIRT1 assay: stimulation of SIRT1 expression in NHDF cells (immunofluorescence); type: cell-based, human; settings: concentration 30 µM; NHDF cells treated 48 h; mean values of at least 2 independent tests
Procedure: NHDF cells (normal human dermal fibroblasts) were seeded in 96-well plates. After 24 h cultivation at 37 °C and 5% CO2 in DMEM (Dulbecco's Modified Eagle Medium), cells were treated with test substances for another 48 h. After washing the cells with PBS (phosphate buffered saline), the cells were fixed with paraformaldehyde and permeabilized. Then they were washed again and blocked with BSA (bovine serum albumen), followed by incubation with […]. After extensive washing, the fluorescence is measured in a microplate reader and fluorescence images were recorded on a fluorescence microscope with an attached […]. The stimulation of SIRT1 expression was calculated by: StimulationofSIRT1expression[%] = ((RFUtestesubstance−RFUbackground)/(RFUcontrol−RFUbackground)×100)−100 [formula] RFU test substance = relative fluorescent units of the wells with test substance, stained completely RFU control = relative fluorescent units of the wells without test substance, stained completely RFU background = relative fluorescent units of the wells without test substance, stained only with secondary antibody. Table Example 2: Stimulation of SIRT1 expression by the individual substances (mean values of at least 2 independent tests)

[2] = test system: yeast; settings: cited from earlier work
[3] = test system: fish; settings: cited from earlier work
[4] = molecular target: T1, proteasome (Homo sapiens, UniProt P28074); test: Measurement of proteasome activity using cell lysates (HaCaT cells, MCA liberation); type: biochemical; settings: HaCaT cell lysate, relative to DMSO control (0 mM = 100 %), mean values of 3 independent tests
T1 construct: endogenous in cells; host or cells: HaCaT human keratinocytes (cell lysate)
Procedure: To determine proteasome activity in cell lysate, human keratinocyte cell lines (HaCaT cells) were seeded out in Petri-dishes (area: 22.1 cm^2) and harvested when they reached confluence. Isolation of the pure cell lysate included cell washing, incubation and homogenization in lysis buffer (250mM sucrose, 25mM HEPES (4-(2-hydroxyethyl)-1-piperazineethanesulfonic acid), 10mM MgCl2*6H2O, 1.3mM EDTA) and final cell lysis with liquid nitrogen. Determination of proteasome activity is based on the liberation of MCA and the corresponding fluorescence like described above in example 3.1. Proteasome activity was calculated relative to DMSO control (0 mM). Table Example 3.2: Measurement of proteasome activity of BIO1272 using cellular extracts (mean values of 3 independent tests)

[5] = molecular target: isolated 20S proteasome (Homo sapiens, UniProt P28074); test: Measurement of proteasome activity using isolated proteasome (chymotrypsin-like activity, MCA liberation); type: biochemical; settings: mean values of 3 independent tests
From the text: The method used herein to investigate the proteasome stimulating activity of a substance is based on the measurement of the 20S proteasome core activity. To detect this activity, the isolated 20S proteasome reacts with an oligopeptide, which is bound to a fluorochrome. With its chymotrypsin-like proteolytic activity, the proteasome degrades the oligopeptide and liberates the fluorochrome. For this assay 4-methyl-coumaryl-amide (MCA) was used as fluorochrome. Liberation of MCA correlates linearly with the proteasome activity. MCA wass detected using an excitation of 360 nm and an emission of 460 nm.
For interpretation, the measured proteasome activities / intensities of fluorescence were compared with pure MCA standards at distinct concentrations.
Two different controls were used for each assay. One "ordinary" control (C) which consisted of isolated proteasome alone, and a DMSO-control (DC). DC was necessary because all substances were diluted in DMSO. Proteasome activity was calculated relative to DMSO control (0 mM). Table Example 3.1: Measurement of proteasome activity of BIO1272 using isolated proteasome (mean values of 3 independent tests)

Row | SMILES | Stimulation of SIRT1 expression [1] [%] | other results
1 | CCc1ccc(NC(=O)OC2CC(C)CC(C)C2)cc1 (stereo not shown) [BIO1823, (4-Ethyl-phenyl)-carbamic acid 3,5-dimethyl-cyclohexyl ester] | 66 | –
2 | CC(C)[C@@H]1CC[C@@H](C)C[C@H]1OC(=O)Nc1ccccc1 [BIO1580, Phenyl-carbamic acid (1R,2S,5R)-2-isopropyl-5-methyl-cyclohexyl ester] | 117 | –
3 | CCCCNC(=O)O[C@@H]1C[C@H](C)CC[C@H]1C(C)C [BIO1267, n-Butyl-carbamic acid (1R,2S,5R)-2-isopropyl-5-methyl-cyclohexyl ester] | 29 | –
4 | CCCCNC(=O)OC1CCCCC1C(C)C (stereo not shown) [BIO1841, n-Butyl-carbamic acid 2-isopropyl-cyclohexyl ester] | 14 | –
5 | CCCCNC(=O)OC1C(C)CCC(C)C1C (stereo not shown) [BIO1617, n-Butyl-carbamic acid 2,3,6-trimethyl-cyclohexyl ester] | 24 | –
6 | CCCCCCNC(=O)O[C@@H]1C[C@H](C)CC[C@H]1C(C)C [BIO1271, Hexyl-carbamic acid (1R,2S,5R)-2-isopropyl-5-methyl-cyclohexyl ester] | 66 | –
7 | CCCCNC(=O)O[C@H]1C[C@@H](C)CC[C@@H]1C(C)C [BIO1860, Butyl-carbamic acid (1S,2R,5S)-2-isopropyl-5-methyl-cyclohexyl ester] | 47 | –
8 | CCC(C)NC(=O)OC1CCCC(C)C1C (stereo not shown) [BIO1845, sec-Butyl-carbamic acid 2,3-dimethyl-cyclohexyl ester] | 52 | –
9 | Oc1ccc(C=Cc2cc(O)cc(O)c2)cc1 [Resveratrol] | – | extending lifespan [2]: 70%; extending lifespan [3]: 60%
10 | CC(C)NC(=O)O[C@@H]1C[C@H](C)CC[C@H]1C(C)C [BIO1272, Isopropyl-carbamic acid (1R,2S,5R)-2-isopropyl-5-methyl-cyclohexyl ester] | – | Relative proteasome activity [%] ([4]; 5mM BIO1272): 105%; Relative proteasome activity [%] ([4]; 10mM BIO1272): 120%; Relative proteasome activity [%] ([4]; 20mM BIO1272): 140%; Relative proteasome activity [%] ([5]; 5mM BIO1272, relative to DMSO control (0 mM = 100 %)): 125%; Relative proteasome activity [%] ([5]; 10mM BIO1272, relative to DMSO control (0 mM = 100 %)): 210%; Relative proteasome activity [%] ([5]; 20mM BIO1272, relative to DMSO control (0 mM = 100 %)): 250%
